# Experimental data reported in patent US9661854B2, “Molecules having pesticidal utility, and intermediates, compositions, and processes, related thereto” (Dow AgroSciences LLC, priority 2015, dated 2017).
# Tests used:
# [1] = tested on: Beet Armyworm (Spodoptera exigua, LAPHEG); experiment: Bioassay on Beet Armyworm (BAW), 128-well diet tray assay; type: in vivo; settings: 168 h, 50 μg/cm^2 on artificial diet, second instar larvae, 25° C., five to seven days, average of eight wells, read-out: BAW % Control (or Mortality) rating
# Procedure: (§1) Example A: Bioassays on Beet Armyworm (Spodoptera exigua, LAPHEG) (“BAW”) and Cabbage Looper (Trichoplusia ni, TRIPNI) (“CL”)
# (§2) Certain molecules disclosed in this document were tested against BAW and CL using procedures described in the following examples. In the reporting of the results, the “BAW & CL Rating Table” was used (See Table Section).
# Bioassays on BAW were conducted using a 128-well diet tray assay. One to five second instar BAW larvae were placed in each well (3 mL) of the diet tray that had been previously filled with 1 mL of artificial diet to which 50 μg/cm^2 of the test molecule (dissolved in 50 μL of 90:10 acetone-water mixture) had been applied (to each of eight wells) and then allowed to dry. Trays were covered with a clear self-adhesive cover, vented to allow gas exchange, and held at 25° C., 14:10 light-dark for five to seven days. Percent mortality was recorded for the larvae in each well; activity in the eight wells was then averaged. The results are indicated in the table entitled “Table ABC: Biological Results” (See Table Section).
# [2] = tested on: Cabbage Looper (Trichoplusia ni, TRIPNI); experiment: Bioassay on Cabbage Looper (CL), 128-well diet tray assay; type: in vivo; settings: 168 h, 50 μg/cm^2 on artificial diet, second instar larvae, 25° C., five to seven days, average of eight wells, read-out: CL % Control (or Mortality) rating
# Procedure: as §1, §2
# Bioassays on CL were conducted using a 128-well diet tray assay. One to five second instar CL larvae were placed in each well (3 mL) of the diet tray that had been previously filled with 1 mL of artificial diet to which 50 μg/cm^2 of the test molecule (dissolved in 50 μL of 90:10 acetone-water mixture) had been applied (to each of eight wells) and then allowed to dry. Trays were covered with a clear self-adhesive cover, vented to allow gas exchange, and held at 25° C., 14:10 light-dark for five to seven days. Percent mortality was recorded for the larvae in each well; activity in the eight wells was then averaged. The results are indicated in the table entitled “Table ABC: Biological Results” (See Table Section).
SMILES,mortality at 50 µg/cm2 [1],mortality at 50 µg/cm2 [2]
"Cc1ccc(C(C)C)c(N2C(=O)CS/C2=N\C(=O)Nc2ccc(CCc3ncn(-c4ccc(OC(F)(F)F)cn4)n3)cn2)c1 [F33, (Z)-1-(3-(2-Isopropyl-5-methylphenyl)-4-oxothiazolidin-2-ylidene)-3-(5-(2-(1-(5-(trifluoromethoxy)pyridin-2-yl)-1H-1,2,4-triazol-3-yl)ethyl)pyridin-2-yl)urea]",50 to 100%,50 to 100%
"COc1cc(NC(=O)/N=C2\SCC(=O)N2c2cc(C)ccc2C(C)C)ccc1/C=C/c1ncn(-c2ccc(OC(F)(F)F)cc2)n1 [F40, 1-((Z)-3-(2-Isopropyl-5-methylphenyl)-4-oxothiazolidin-2-ylidene)-3-(3-methoxy-4-((E)-2-(1-(4-(trifluoromethoxy)phenyl)-1H-1,2,4-triazol-3-yl)vinyl)phenyl)urea]",50 to 100%,50 to 100%
"COCc1ccc(C)cc1N1C(=O)CS/C1=N\C(=O)Nc1ccc(/C=C/c2ncn(-c3ccc(OC(F)(F)F)cc3)n2)cc1 [F53, 1-((Z)-3-(2-(Methoxymethyl)-5-methylphenyl)-4-oxothiazolidin-2-ylidene)-3-(4-((E)-2-(1-(4-(trifluoromethoxy)phenyl)-1H-1,2,4-triazol-3-yl)vinyl)phenyl)urea]",50 to 100%,50 to 100%
"COc1ccc(C)cc1N1C(=O)CS/C1=N\C(=O)Nc1ccc(/C=C/c2ncn(-c3ccc(OC(F)(F)F)cc3)n2)cc1 [F42, 1-((Z)-3-(2-Methoxy-5-methylphenyl)-4-oxothiazolidin-2-ylidene)-3-(4-((E)-2-(1-(4-(trifluoromethoxy)phenyl)-1H-1,2,4-triazol-3-yl)vinyl)phenyl)urea]",50 to 100%,50 to 100%
"Cc1ccc(C(C)C)c(N2C(=O)CS/C2=N\C(=O)Nc2ccc(/C=C/c3ncn(-c4ccc(OC(F)(F)F)cc4)n3)c(C)c2)c1 [F39, 1-((Z)-3-(2-Isopropyl-5-methylphenyl)-4-oxothiazolidin-2-ylidene)-3-(3-methyl-4-((E)-2-(1-(4-(trifluoromethoxy)phenyl)-1H-1,2,4-triazol-3-yl)vinyl)phenyl)urea]",50 to 100%,50 to 100%
"COC(=O)c1cc(CCc2ncn(-c3ccc(OC(F)(F)F)cc3)n2)ccc1NC(=O)/N=C1\SCC(=O)N1c1cc(C)ccc1C(C)C [F16, Methyl (Z)-2-(3-(3-(2-isopropyl-5-methylphenyl)-4-oxothiazolidin-2-ylidene)ureido)-5-(2-(1-(4-(trifluoromethoxy)phenyl)-1H-1,2,4-triazol-3-yl)ethyl)benzoate]",50 to 100%,50 to 100%
"Cc1ccc(C(C)C)c(N2C(=O)CS/C2=N\C(=O)Nc2ccc(/C=C/c3ncn(-c4ccc(OC(F)(F)F)cn4)n3)cn2)c1 [F71, 1-((Z)-3-(2-isopropyl-5-methylphenyl)-4-oxothiazolidin-2-ylidene)-3-(5-((E)-2-(1-(5-(trifluoromethoxy)pyridin-2-yl)-1H-1,2,4-triazol-3-yl)vinyl)pyridin-2-yl)urea]",50 to 100%,50 to 100%
"COC(C)c1ccc(C)cc1N1C(=O)CS/C1=N\C(=O)Nc1ccc(CCc2ncn(-c3ccc(OC(F)(F)F)cc3)n2)cc1 (stereo not shown) [F31, (Z)-1-(3-(2-(1-Methoxyethyl)-5-methylphenyl)-4-oxothiazolidin-2-ylidene)-3-(4-(2-(1-(4-(trifluoromethoxy)phenyl)-1H-1,2,4-triazol-3-yl)ethyl)phenyl)urea]",50 to 100%,50 to 100%
"Cc1ccc(C(C)C)c(-n2ccs/c2=N\C(=O)Nc2ccc(CCc3ncn(-c4ccc(OC(F)(F)F)cc4)n3)cc2F)c1 [F37, (Z)-1-(2-Fluoro-4-(2-(1-(4-(trifluoromethoxy)phenyl)-1H-1,2,4-triazol-3-yl)ethyl)phenyl)-3-(3-(2-isopropyl-5-methylphenyl)thiazol-2(3H)-ylidene)urea]",50 to 100%,50 to 100%
"CCCc1ccc(C)cc1N1C(=O)CS/C1=N\C(=O)Nc1ccc(CCc2ncn(-c3ccc(OC(F)(F)F)cc3)n2)cc1 [F7, (Z)-1-(3-(5-Methyl-2-propylphenyl)-4-oxothiazolidin-2-ylidene)-3-(4-(2-(1-(4-(trifluoromethoxy)phenyl)-1H-1,2,4-triazol-3-yl)ethyl)phenyl)urea]",50 to 100%,50 to 100%
"Cc1ccc(C(C)C)c(-n2ccs/c2=N\C(=O)Nc2ccc(CCc3ncn(-c4ccc(OC(F)(F)F)cc4)n3)cc2)c1 [F36, (Z)-1-(3-(2-Isopropyl-5-methylphenyl)thiazol-2(3H)-ylidene)-3-(4-(2-(1-(4-(trifluoromethoxy)phenyl)-1H-1,2,4-triazol-3-yl)ethyl)phenyl)urea]",50 to 100%,50 to 100%
"COCc1ccc(C)cc1N1C(=O)CS/C1=N\C(=O)Nc1ccc(CCc2ncn(-c3ccc(OC(F)(F)F)cc3)n2)cc1F [F22, (Z)-1-(2-Fluoro-4-(2-(1-(4-(trifluoromethoxy)phenyl)-1H-1,2,4-triazol-3-yl)ethyl)phenyl)-3-(3-(2-(methoxymethyl)-5-methylphenyl)-4-oxothiazolidin-2-ylidene)urea]",50 to 100%,50 to 100%
"Cc1ccc(C(C)C)c(N2C(=O)CS/C2=N\C(=O)Nc2ccc(C3CC3c3ncn(-c4ccc(OC(F)(F)F)cc4)n3)cc2)c1 (stereo not shown) [F73, (Z)-1-(3-(2-Isopropyl-5-methylphenyl)-4-oxothiazolidin-2-ylidene)-3-(4-(2-(1-(4-(trifluoromethoxy)phenyl)-1H-1,2,4-triazol-3-yl)cyclopropyl)phenyl)urea]",50 to 100%,50 to 100%
"O=C(/N=C1\SCC(=O)N1c1cccnc1)Nc1ccc(CCc2ncn(-c3ccc(OC(F)(F)F)cc3)n2)cc1 [F75, (Z)-1-(4-Oxo-3-(pyridin-3-yl)thiazolidin-2-ylidene)-3-(4-(2-(1-(4-(trifluoromethoxy)phenyl)-1H-1,2,4-triazol-3-yl)ethyl)phenyl)urea]",50 to 100%,50 to 100%
"Cc1ccc(C(F)(F)F)c(N2C(=O)CS/C2=N\C(=O)Nc2ccc(CCc3ncn(-c4ccc(OC(F)(F)F)cc4)n3)cc2)c1 [F5, (Z)-1-(3-(5-Methyl-2-(trifluoromethyl)phenyl)-4-oxothiazolidin-2-ylidene)-3-(4-(2-(1-(4-(trifluoromethoxy)phenyl)-1H-1,2,4-triazol-3-yl)ethyl)phenyl)urea]",50 to 100%,50 to 100%
"Cc1ccc(OC(F)(F)F)c(N2C(=O)CS/C2=N\C(=O)Nc2ccc(/C=C/c3ncn(-c4ccc(OC(F)(F)F)cc4)n3)cc2)c1 [F50, 1-((Z)-3-(5-Methyl-2-(trifluoromethoxy)phenyl)-4-oxothiazolidin-2-ylidene)-3-(4-((E)-2-(1-(4-(trifluoromethoxy)phenyl)-1H-1,2,4-triazol-3-yl)vinyl)phenyl)urea]",50 to 100%,50 to 100%
"COCc1ccc(C)cc1N1C(=O)CS/C1=N\C(=O)Nc1ccc(/C=C/c2ncn(-c3ccc(OC(F)(F)F)cc3)n2)cc1F [F59, 1-(2-Fluoro-4-((E)-2-(1-(4-(trifluoromethoxy)phenyl)-1H-1,2,4-triazol-3-yl)vinyl)phenyl)-3-((Z)-3-(2-(methoxymethyl)-5-methylphenyl)-4-oxothiazolidin-2-ylidene)urea]",50 to 100%,50 to 100%
"Cc1ccc(F)c(N2C(=O)CS/C2=N\C(=O)Nc2ccc(/C=C/c3ncn(-c4ccc(OC(F)(F)F)cc4)n3)cc2)c1 [F41, 1-((Z)-3-(2-Fluoro-5-methylphenyl)-4-oxothiazolidin-2-ylidene)-3-(4-((E)-2-(1-(4-(trifluoromethoxy)phenyl)-1H-1,2,4-triazol-3-yl)vinyl)phenyl)urea]",50 to 100%,50 to 100%
"Cc1ccc(C(C)C)c(N2C(=O)CS/C2=N\C(=O)Nc2ccc(/C=C/c3ncn(-c4ccc(OC(F)(F)F)cc4)n3)cc2F)c1 [F55, 1-(2-Fluoro-4-((E)-2-(1-(4-(trifluoromethoxy)phenyl)-1H-1,2,4-triazol-3-yl)vinyl)phenyl)-3-((Z)-3-(2-isopropyl-5-methylphenyl)-4-oxothiazolidin-2-ylidene)urea]",50 to 100%,50 to 100%
"COCc1ccc(C)cc1N1C(=O)CS/C1=N\C(=O)Nc1ccc(CCc2ncn(-c3ccc(OC(F)(F)F)cc3)n2)cc1 [F21, (Z)-1-(3-(2-(Methoxymethyl)-5-methylphenyl)-4-oxothiazolidin-2-ylidene)-3-(4-(2-(1-(4-(trifluoromethoxy)phenyl)-1H-1,2,4-triazol-3-yl)ethyl)phenyl)urea]",50 to 100%,50 to 100%
